How the values were obtained:
bovine gelatin = assay: Young's Modulus measurement (Instron) of irradiated bovine gelatin strips; settings: bovine gelatin 25% wt, ICG 1 mg/mL, TEOA 90 mM; 810 nm 200 mW LED; 3 and 5 minute irradiations compiled
Description: (§1) All Young's Modulus values were determined using an Instron equipped with screw side action tensile grips and a load cell rated for max 100 N. Rates of pulling were between 3 mm/minute and 5 mm/minute. The software calculated the Young's Modulus from the force vs. distance/time.
Bovine gelatin sheets were made by heating the gelatin in Dulbecco's buffer to 75° C. for 30 minutes in order to dissolve the dried gelatin and make a viscous solution. Neat TEOA and a concentrated stock solution of ICG in deionized water were added to make the final concentrations: bovine gelatin=25% wt, TEOA=90 mM, and ICG=1 mg/mL. This solution was pipetted hot into a plexiglass mold with a Teflon spacer to form a sheet of the following dimensions: 14 cm×6 cm×1 mm. It was stored overnight in a 4° C. refrigerator to solidify. Twelve 1 cm×6 cm strips were cut from the solidified gel for triplicate analysis of 4 conditions: no irradiation, 3 minute, 5 minute, and 10 minute irradiations. An 810 nm 200 mW LED (Thor Labs) was used for treatment of the gel strip. The LED with a collimator produced a 1 cm×1 cm irradiation area, which was used to treat 1 cm portions of the gelatin strip at a time. For example, an initial irradiation was applied for 3 minutes on 1 cm of the gel, then the gel was shifted 1 cm to a new, untreated portion. […]

porcine sclera = assay: Young's Modulus measurement (Instron) of irradiated porcine sclera strips; parameters: species or system porcine (pig); settings: porcine sclera strips soaked in 2 mg/mL ICG, 0.01% BAC in D2O; 810 nm LED 200 mW, total 10 minutes
Description: as §1
The treatment was also tested on a more biologically relevant sample—unscalded porcine (pig) eyes (Sierra For Medical Science). Eyes were cut around the globe to make a 1 cm×5-6 cm strip of pig sclera for testing. Measurements were accumulated over several batches of eyes. Storage solutions before treatment (irradiation) contained 20% Dextran (MW ˜40-45k) in D2O while post-treatment storage was Dulbecco's buffer with 20% Dextran (MW ˜40-45k). An ICG/BAC/D2O soak solution was made to the concentration of 2 mg/mL ICG and 0.01% BAC. Strips for treatment were soaked in the solution for 0.5-2 hours. Irradiation was carried out similarly to the bovine gelatin strips—810 nm LED, 200 mW, and a 1 cm×1 cm irradiation zone. To ensure sufficient irradiation without sample dehydration, irradiation duration was kept at 5 minutes but performed twice—i.e. the sample was moved down 1 cm every 5 minutes and then the process was repeated—in order to give a total of 10 minutes of irradiation. […] The Young's Modulus values were calculated by the software and compiled to compare untreated vs. treated strips. […]

[1] = Singlet oxygen sensor green (SOSG) fluorescence measurements; format: physicochemical; settings: for SOSG fluorescence emission at 525 nm: dye 0.1 mg/mL, 810 nm, 200 mW, 488 nm excitation
Description: Singlet oxygen sensor green (SOSG) is a common reagent for measuring singlet oxygen generation in aqueous systems. The marker becomes more fluorescent as singlet oxygen is generated. All time measurements were done in triplicate (100 μL aliquots from an irradiated sample). A Molecular Devices Flexstation was used to read out the fluorescence measurements with the excitation/emission at 488/525 nm.
SOSG fluorescence turn on was initially measured using riboflavin as a point of comparison for the efficacy of ICG irradiations. Measurements used a dye concentration of 0.1 mg/mL and the irradiation the parameters (3 mW at 365 nm) used in the FDA approved procedure for keratoconus (corneal expansion). The mixture was stirred during irradiation.
Stocks of the ICG formulations (both H2O and D2O) were made to be 1 mg/mL ICG and 0.01% benzalkonium chloride (BAC). These were diluted to a dye concentration of 0.1 mg/mL for the SOSG tests with no adjustments for the BAC. The sample was irradiated with 810 nm light at 200 mW and stirred throughout the irradiation.

[2] = Dye solubility observations; format: physicochemical
Description: ICG is a NIR-absorbing heptamethine dye that has the potential of generating singlet oxygen upon irradiation and has a λmax ranging from 780-810 nm depending on the context. […] BAC along with other cationic surfactants (alkyl ammonium salts, polyoxyethylene alkyl amines, amide linked alkyl amines, alkyl imidazolines, etc.) aid in the solubility of the dye in aqueous media. […] The standard formulation used in these studies consisted of 0.05 to 5.0 mg/mL ICG and 0.01% to 0.001% BAC in solution. D2O was selected as the solvent to increase the lifetime of singlet oxygen and therefore the crosslinking capability of the species. […] Fluorinated solvents (perfluorohexane, perfluorotripentylamine, etc.) are also of interest due to their ability to dissolve more oxygen and their robust inertness.

SMILES: CC1(C)C(/C=C/C=C/C=C/C=C2\N(CCCCS(=O)(=O)O)c3ccc4ccccc4c3C2(C)C)=[N+](CCCCS(=O)(=O)[O-])c2ccc3ccccc3c21 [ICG, indocyanine green]
- increase of the Young's Modulus, irradiated vs non-irradiated sample (bovine gelatin): 26%
- increase of the Young's Modulus, irradiated (treated) vs non-irradiated (untreated) sample (porcine sclera): 21%
- SOSG fluorescence emission at 525 nm ([1]; D2O): large increase in fluorescence activation
- SOSG fluorescence emission at 525 nm ([1]; H2O): increase
- singlet oxygen generation (SOSG turn-on) relative to riboflavin ([1]; only in the presence of D2O): efficient enough to compete with the turn-on observed in the presence of riboflavin
- solubility in aqueous media ([2]; BAC compared with sodium iodide): greater increases in solubility
- solubility in aqueous media ([2]; with BAC and other cationic surfactant additives): enhanced solubility

Reference: patent publication US20230173071A1, “TREATMENT OF MYOPIA AND OTHER OCULAR CONDITIONS USING SINGLET OXYGEN GENERATED FROM DYES ACTIVATED BY NEAR-INFRARED LIGHT” (California Institute of Technology, priority 2018, published 2023)
